Legend:
Assay in all cases: relative viability (nuclei count vs DMSO), 5 days (fraction); higher = more cells survive
JZL-184 = compound: C1CN(CCC1C(C2=CC3=C(C=C2)OCO3)(C4=CC5=C(C=C4)OCO5)O)C(=O)OC6=CC=C(C=C6)[N+](=O)[O-] [JZL-184]
How it was run: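 After an overnight hold at 37 °C, lung cancer cell lines in 1536-well plates were pinned with five library-drug doses (not always all listed), each √10 from the next, on vehicle-anchored plates. The cells stayed 5 days without fresh medium, then a one-step fix, permeabilisation and Hoechst stain preceded 4× imaging and MetaXpress nuclear counts. A plate passed only with control CV under 25% and at least one doubling. Viability is the median, over plates, of treated-well nuclei relative to vehicle-well nuclei.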

JZL-184 + Navitoclax = compound: C1CN(CCC1C(C2=CC3=C(C=C2)OCO3)(C4=CC5=C(C=C4)OCO5)O)C(=O)OC6=CC=C(C=C6)[N+](=O)[O-] [JZL-184] + CC1(C)CCC(c2ccc(Cl)cc2)=C(CN2CCN(c3ccc(C(=O)NS(=O)(=O)c4ccc(N[C@H](CCN5CCOCC5)CSc5ccccc5)c(S(=O)(=O)C(F)(F)F)c4)cc3)CC2)C1 [Navitoclax] (partner 0.5 µM)
How it was run: (§1)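 Lung cancer cell lines were seeded in 1536-well plates and dosed by pin tool the next day, with either a single drug or a fixed anchor-drug dose combined with five library-drug doses (not always all listed) spaced in √10 steps. Five days later, one step fixed the cells and stained their nuclei (final 0.05% Triton X-100, 1% formaldehyde, 1 ug/ml Hoechst), and nuclei were counted on 4× images. Relative viability is the nuclei count in treated wells divided by the count in vehicle wells, and each value is the median of duplicate plates.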

JZL-184 + Lapatinib = compound: C1CN(CCC1C(C2=CC3=C(C=C2)OCO3)(C4=CC5=C(C=C4)OCO5)O)C(=O)OC6=CC=C(C=C6)[N+](=O)[O-] [JZL-184] + CS(=O)(=O)CCNCc1ccc(-c2ccc3ncnc(Nc4ccc(OCc5cccc(F)c5)c(Cl)c4)c3c2)o1 [Lapatinib] (partner 2 µM)
How it was run: as §1

JZL-184 + Dasatinib = compound: C1CN(CCC1C(C2=CC3=C(C=C2)OCO3)(C4=CC5=C(C=C4)OCO5)O)C(=O)OC6=CC=C(C=C6)[N+](=O)[O-] [JZL-184] + Cc1nc(Nc2ncc(C(=O)Nc3c(C)cccc3Cl)s2)cc(N2CCN(CCO)CC2)n1 [Dasatinib] (partner 0.075 µM)
How it was run: as §1

JZL-184 + Vorinostat = compound: C1CN(CCC1C(C2=CC3=C(C=C2)OCO3)(C4=CC5=C(C=C4)OCO5)O)C(=O)OC6=CC=C(C=C6)[N+](=O)[O-] [JZL-184] + O=C(CCCCCCC(=O)Nc1ccccc1)NO [Vorinostat] (partner 1 µM)
How it was run: as §1

NCI-H2009 showed a relative viability (JZL-184; 0.04 µM) of 1.12, a relative viability (JZL-184; 0.4 µM) of 0.942 and a relative viability (JZL-184; 1.265 µM) of 1.02. For the same cell line, the relative viability (JZL-184; 4 µM) was 1, the relative viability (JZL-184 + Navitoclax; first compound 0.04 µM) was 1.18 and the relative viability (JZL-184 + Navitoclax; first compound 0.4 µM) was 0.951. For the same cell line, the relative viability (JZL-184 + Navitoclax; first compound 1.265 µM) was 1.17, the relative viability (JZL-184 + Navitoclax; first compound 4 µM) was 1.17 and the relative viability (JZL-184 + Lapatinib; first compound 0.04 µM) was 1.15. It also gave a relative viability (JZL-184 + Lapatinib; first compound 0.4 µM) of 0.805, a relative viability (JZL-184 + Lapatinib; first compound 1.265 µM) of 0.928 and a relative viability (JZL-184 + Lapatinib; first compound 4 µM) of 1.01. It also gave a relative viability (JZL-184 + Dasatinib; first compound 0.04 µM) of 0.354, a relative viability (JZL-184 + Dasatinib; first compound 0.4 µM) of 0.28 and a relative viability (JZL-184 + Dasatinib; first compound 1.265 µM) of 0.333. For the same cell line, the relative viability (JZL-184 + Dasatinib; first compound 4 µM) was 0.239, the relative viability (JZL-184 + Vorinostat; first compound 0.04 µM) was 0.702 and the relative viability (JZL-184 + Vorinostat; first compound 0.4 µM) was 0.692. The relative viability (JZL-184 + Vorinostat; first compound 1.265 µM) was 0.69 and the relative viability (JZL-184 + Vorinostat; first compound 4 µM) was 0.745.
With NCI-H23 the relative viability (JZL-184; 0.04 µM) was 1.14, the relative viability (JZL-184; 0.4 µM) was 0.767 and the relative viability (JZL-184; 1.265 µM) was 1.18. It also gave a relative viability (JZL-184; 4 µM) of 0.998, a relative viability (JZL-184 + Navitoclax; first compound 0.04 µM) of 1.01 and a relative viability (JZL-184 + Navitoclax; first compound 0.4 µM) of 0.63. It also gave a relative viability (JZL-184 + Navitoclax; first compound 1.265 µM) of 0.837, a relative viability (JZL-184 + Navitoclax; first compound 4 µM) of 0.777 and a relative viability (JZL-184 + Lapatinib; first compound 0.04 µM) of 1.39. For the same cell line, the relative viability (JZL-184 + Lapatinib; first compound 0.4 µM) was 0.969, the relative viability (JZL-184 + Lapatinib; first compound 1.265 µM) was 1.26 and the relative viability (JZL-184 + Lapatinib; first compound 4 µM) was 1.07. For the same cell line, the relative viability (JZL-184 + Dasatinib; first compound 0.04 µM) was 0.896, the relative viability (JZL-184 + Dasatinib; first compound 0.4 µM) was 0.81 and the relative viability (JZL-184 + Dasatinib; first compound 1.265 µM) was 0.864. The relative viability (JZL-184 + Dasatinib; first compound 4 µM) was 0.751, the relative viability (JZL-184 + Vorinostat; first compound 0.04 µM) was 0.62 and the relative viability (JZL-184 + Vorinostat; first compound 1.265 µM) was 0.673. It also gave a relative viability (JZL-184 + Vorinostat; first compound 4 µM) of 0.502.
In the case of NCI-H727, the relative viability (JZL-184; 0.04 µM) was 0.949, the relative viability (JZL-184; 0.4 µM) was 0.793 and the relative viability (JZL-184; 1.265 µM) was 1.09. The relative viability (JZL-184; 4 µM) was 0.781, the relative viability (JZL-184 + Navitoclax; first compound 0.04 µM) was 0.383 and the relative viability (JZL-184 + Navitoclax; first compound 0.4 µM) was 0.455. It also gave a relative viability (JZL-184 + Navitoclax; first compound 1.265 µM) of 0.543, a relative viability (JZL-184 + Navitoclax; first compound 4 µM) of 0.422 and a relative viability (JZL-184 + Lapatinib; first compound 0.04 µM) of 0.92. It also gave a relative viability (JZL-184 + Lapatinib; first compound 0.4 µM) of 0.688, a relative viability (JZL-184 + Lapatinib; first compound 1.265 µM) of 0.862 and a relative viability (JZL-184 + Lapatinib; first compound 4 µM) of 0.807. It also gave a relative viability (JZL-184 + Dasatinib; first compound 0.04 µM) of 0.37, a relative viability (JZL-184 + Dasatinib; first compound 0.4 µM) of 0.443 and a relative viability (JZL-184 + Dasatinib; first compound 1.265 µM) of 0.398. It also gave a relative viability (JZL-184 + Dasatinib; first compound 4 µM) of 0.334, a relative viability (JZL-184 + Vorinostat; first compound 0.04 µM) of 1.26 and a relative viability (JZL-184 + Vorinostat; first compound 0.4 µM) of 1.14. It also gave a relative viability (JZL-184 + Vorinostat; first compound 1.265 µM) of 1.08 and a relative viability (JZL-184 + Vorinostat; first compound 4 µM) of 1.05.
With NCI-H1355 the relative viability (JZL-184; 0.04 µM) was 0.984, the relative viability (JZL-184; 0.4 µM) was 0.927 and the relative viability (JZL-184; 1.265 µM) was 1.06. The relative viability (JZL-184; 4 µM) was 0.946, the relative viability (JZL-184 + Navitoclax; first compound 0.04 µM) was 0.848 and the relative viability (JZL-184 + Navitoclax; first compound 0.4 µM) was 0.925. For the same cell line, the relative viability (JZL-184 + Navitoclax; first compound 1.265 µM) was 1.08, the relative viability (JZL-184 + Navitoclax; first compound 4 µM) was 0.861 and the relative viability (JZL-184 + Lapatinib; first compound 0.04 µM) was 0.974. For the same cell line, the relative viability (JZL-184 + Lapatinib; first compound 0.4 µM) was 0.921, the relative viability (JZL-184 + Lapatinib; first compound 1.265 µM) was 1.02 and the relative viability (JZL-184 + Lapatinib; first compound 4 µM) was 0.943. It also gave a relative viability (JZL-184 + Dasatinib; first compound 0.04 µM) of 0.723, a relative viability (JZL-184 + Dasatinib; first compound 0.4 µM) of 0.662 and a relative viability (JZL-184 + Dasatinib; first compound 1.265 µM) of 0.783. The relative viability (JZL-184 + Dasatinib; first compound 4 µM) was 0.672, the relative viability (JZL-184 + Vorinostat; first compound 0.04 µM) was 0.684 and the relative viability (JZL-184 + Vorinostat; first compound 0.4 µM) was 0.63. For the same cell line, the relative viability (JZL-184 + Vorinostat; first compound 1.265 µM) was 0.672 and the relative viability (JZL-184 + Vorinostat; first compound 4 µM) was 0.618.
Work on NCI-H1944 yielded a relative viability (JZL-184; 0.04 µM) of 0.954, a relative viability (JZL-184; 0.4 µM) of 0.921 and a relative viability (JZL-184; 1.265 µM) of 1.03. For the same cell line, the relative viability (JZL-184; 4 µM) was 1.01, the relative viability (JZL-184 + Navitoclax; first compound 0.04 µM) was 0.948 and the relative viability (JZL-184 + Navitoclax; first compound 0.4 µM) was 1.08. It also gave a relative viability (JZL-184 + Navitoclax; first compound 1.265 µM) of 1.08, a relative viability (JZL-184 + Navitoclax; first compound 4 µM) of 1.02 and a relative viability (JZL-184 + Lapatinib; first compound 0.04 µM) of 0.805. It also gave a relative viability (JZL-184 + Lapatinib; first compound 0.4 µM) of 0.803, a relative viability (JZL-184 + Lapatinib; first compound 1.265 µM) of 0.875 and a relative viability (JZL-184 + Lapatinib; first compound 4 µM) of 0.846. The relative viability (JZL-184 + Dasatinib; first compound 0.04 µM) was 0.256, the relative viability (JZL-184 + Dasatinib; first compound 0.4 µM) was 0.208 and the relative viability (JZL-184 + Dasatinib; first compound 1.265 µM) was 0.221. For the same cell line, the relative viability (JZL-184 + Dasatinib; first compound 4 µM) was 0.213, the relative viability (JZL-184 + Vorinostat; first compound 0.04 µM) was 0.528 and the relative viability (JZL-184 + Vorinostat; first compound 0.4 µM) was 0.476. It also gave a relative viability (JZL-184 + Vorinostat; first compound 1.265 µM) of 0.565 and a relative viability (JZL-184 + Vorinostat; first compound 4 µM) of 0.475.
NCI-H2023 was tested, and the relative viability (JZL-184; 0.04 µM) was 1.15, the relative viability (JZL-184; 0.4 µM) was 0.921 and the relative viability (JZL-184; 1.265 µM) was 1.01. The relative viability (JZL-184; 4 µM) was 0.944, the relative viability (JZL-184 + Navitoclax; first compound 0.04 µM) was 1.07 and the relative viability (JZL-184 + Navitoclax; first compound 0.4 µM) was 0.942. It also gave a relative viability (JZL-184 + Navitoclax; first compound 1.265 µM) of 1.02, a relative viability (JZL-184 + Navitoclax; first compound 4 µM) of 0.963 and a relative viability (JZL-184 + Lapatinib; first compound 0.04 µM) of 1.14. The relative viability (JZL-184 + Lapatinib; first compound 0.4 µM) was 0.853, the relative viability (JZL-184 + Lapatinib; first compound 1.265 µM) was 0.964 and the relative viability (JZL-184 + Lapatinib; first compound 4 µM) was 0.802. For the same cell line, the relative viability (JZL-184 + Dasatinib; first compound 0.04 µM) was 0.713, the relative viability (JZL-184 + Dasatinib; first compound 0.4 µM) was 0.549 and the relative viability (JZL-184 + Dasatinib; first compound 1.265 µM) was 0.587. The relative viability (JZL-184 + Dasatinib; first compound 4 µM) was 0.48, the relative viability (JZL-184 + Vorinostat; first compound 0.04 µM) was 0.766 and the relative viability (JZL-184 + Vorinostat; first compound 0.4 µM) was 0.587. It also gave a relative viability (JZL-184 + Vorinostat; first compound 1.265 µM) of 0.588 and a relative viability (JZL-184 + Vorinostat; first compound 4 µM) of 0.44.
NCI-H1650 showed a relative viability (JZL-184; 0.04 µM) of 1.07, a relative viability (JZL-184; 0.4 µM) of 0.895 and a relative viability (JZL-184; 1.265 µM) of 1.16. The relative viability (JZL-184; 4 µM) was 0.915, the relative viability (JZL-184 + Navitoclax; first compound 0.04 µM) was 1.64 and the relative viability (JZL-184 + Navitoclax; first compound 0.4 µM) was 1.08. For the same cell line, the relative viability (JZL-184 + Navitoclax; first compound 1.265 µM) was 1.39, the relative viability (JZL-184 + Navitoclax; first compound 4 µM) was 1.06 and the relative viability (JZL-184 + Lapatinib; first compound 0.04 µM) was 0.821. For the same cell line, the relative viability (JZL-184 + Lapatinib; first compound 0.4 µM) was 0.735, the relative viability (JZL-184 + Lapatinib; first compound 1.265 µM) was 0.939 and the relative viability (JZL-184 + Lapatinib; first compound 4 µM) was 0.718. The relative viability (JZL-184 + Dasatinib; first compound 0.04 µM) was 0.306, the relative viability (JZL-184 + Dasatinib; first compound 0.4 µM) was 0.297 and the relative viability (JZL-184 + Dasatinib; first compound 1.265 µM) was 0.388. It also gave a relative viability (JZL-184 + Dasatinib; first compound 4 µM) of 0.296, a relative viability (JZL-184 + Vorinostat; first compound 0.04 µM) of 0.715 and a relative viability (JZL-184 + Vorinostat; first compound 0.4 µM) of 0.541. The relative viability (JZL-184 + Vorinostat; first compound 1.265 µM) was 0.604 and the relative viability (JZL-184 + Vorinostat; first compound 4 µM) was 0.561.

— the supplement of paper PMC10307832
